Test results from patent US7414066B2, “Amide compounds and medications containing the same technical field” (Kowa Company Ltd., priority 1999, dated 2008).

| SMILES | melting point [°C] |
| --- | --- |
| CCSc1cc(C)nc(SCC)c1NC(=O)CSc1nc2cccc(S(C)(=O)=O)c2o1 [Compound No. 1317, 2-(7-methansulfonylbenzoxazol-2-ylthio)-N-[2,4-bis(ethylthio)-6-methyl-3-pyridyl]acetamide] | 159 to 162 |
| CSc1nc(SC)c(NC(=O)CCCCCSc2nc3ccccc3o2)c(SC)n1 [Compound No. 1401, 6-(benzoxazol-2-ylthio)-N-[2,4,6-tris(methylthio)-5-pyrimidyl]hexanamide] | 149 to 153 |
| CCSc1cc(C)nc(SCC)c1NC(=O)CSc1nc2cccc(C(=O)OC)c2o1 [Compound No. 1427, 2-(7-methoxycarbonylbenzoxazol-2-ylthio)-N-[2,4-bis(ethylthio)-6-methyl-3-pyridyl]acetamide] | 168 to 169 |
| CSc1cc(C)nc(SC)c1NC(=O)CCCCCCCSc1nc2c(C)c(Cl)cc(C(C)C)c2o1 [Example 95, 8-(5-chloro-7-isopropyl-4-methylbenzoxazol-2-ylthio)-N-[2,4-bis(methylthio)-6-methyl-3-pyridyl]octanamide] | 128 to 131 |
| CSc1ncccc1NC(=O)CCCCCSc1nc2ccccc2o1 [compound 5, 6-(benzoxazol-2-ylthio)-N-(2-methylthio-3-pyridyl)hexanamide] | 127 to 128 |
| CSc1ncccc1NC(=O)CCCCCSc1nc2ccccc2s1 [compound 15, 6-(benzothiazol-2-ylthio)-N-(2-methylthio-3-pyridyl)hexanamide] | 118 to 119 |
| CSc1ncccc1NC(=O)CCCCCCCCSc1nc2ccccc2s1 [compound 18, 9-(benzothiazol-2-ylthio)-N-(2-methylthio-3-pyridyl)nonanamide] | 107 to 108 |
| CSc1ncccc1NC(=O)CCCCCSc1nc2ccccc2[nH]1 [compound 25, 6-(benzimidazol-2-ylthio)-N-(2-methylthio-3-pyridyl)hexanamide] | 121 to 123 |
| CSc1nccc(C)c1NC(=O)CCCCCCCCSc1nc2ccccc2o1 [compound 158, 9-(benzoxazol-2-ylthio)-N-(4-methyl-2-methylthio-3-pyridyl)nonanamide] | 91 to 92 |
| CSc1nc(C)ccc1NC(=O)CCCCCSc1nc2ccccc2o1 [compound 455, 6-(benzoxazol-2-ylthio)-N-(6-methyl-2-methylthio-3-pyridyl)hexanamide] | 140 to 141 |
| CSc1nc(C)ccc1NC(=O)CCCCCCCCSc1nc2ccccc2o1 [compound 458, 9-(benzoxazol-2-ylthio)-N-(6-methyl-2-methylthio-3-pyridyl)nonanamide] | 99 to 100 |
| CSc1nc(C)ccc1NC(=O)CCCCCSc1nc2ccccc2s1 [compound 465, 6-(benzothiazol-2-ylthio)-N-(6-methyl-2-methylthio-3-pyridyl)hexanamide] | 122 to 123 |
| CSc1nc(C)ccc1NC(=O)CCCCCCCCSc1nc2ccccc2s1 [compound 468, 9-(benzothiazol-2-ylthio)-N-(6-methyl-2-methylthio-3-pyridyl)nonanamide] | 104 to 105 |
| CSc1nc(C)ccc1NC(=O)CCCCCSc1nc2ccccc2[nH]1 [compound 475, 6-(benzimidazol-2-ylthio)-N-(6-methyl-2-methylthio-3-pyridyl)hexanamide] | 138 to 140 |
| CSc1cc(C)nc(SC)c1NC(=O)CSc1nc2ccccc2o1 [compound 781, 2-(benzoxazol-2-ylthio)-N-[2,4-bis(methylthio)-6-methyl-3-pyridyl]acetamide] | 203 to 205 |
| CSc1cc(C)nc(SC)c1NC(=O)CCCSc1nc2ccccc2o1 [compound 783, 4-(benzoxazol-2-ylthio)-N-[2,4-bis(methylthio)-6-methyl-3-pyridyl]butanamide] | 149 to 150 |
| CSc1cc(C)nc(SC)c1NC(=O)CCCCCSc1nc2ccccc2o1 [compound 785, 6-(benzoxazol-2-ylthio)-N-[2,4-bis(methylthio)-6-methyl-3-pyridyl]hexanamide] | 120 to 121 |
| CSc1cc(C)nc(SC)c1NC(=O)CCCCCCCCSc1nc2ccccc2o1 [compound 788, 9-(benzoxazol-2-ylthio)-N-[2,4-bis(methylthio)-6-methyl-3-pyridyl]nonanamide] | 123 to 124 |
| CSc1cc(C)nc(SC)c1NC(=O)CCCSc1nc2ccccc2s1 [compound 793, 4-(benzothiazol-2-ylthio)-N-[2,4-bis(methylthio)-6-methyl-3-pyridyl]butanamide] | 131 to 133 |
| CSc1cc(C)nc(SC)c1NC(=O)CCCCCSc1nc2ccccc2s1 [compound 795, 6-(benzothiazol-2-ylthio)-N-[2,4-bis(methylthio)-6-methyl-3-pyridyl]hexanamide] | 123 to 125 |
| CSc1cc(C)nc(SC)c1NC(=O)CCCCCCCCSc1nc2ccccc2s1 [compound 798, 9-(benzothiazol-2-ylthio)-N-[2,4-bis(methylthio)-6-methyl-3-pyridyl]nonanamide] | 126 to 127 |
| CSc1cc(C)nc(SC)c1NC(=O)CCCSc1nc2ccccc2[nH]1 [compound 803, 4-(benzimidazol-2-ylthio)-N-[2,4-bis(methylthio)-6-methyl-3-pyridyl]butanamide] | 177 to 179 |
| CSc1cc(C)nc(SC)c1NC(=O)CCCCCSc1nc2ccccc2[nH]1 [compound 805, 6-(benzimidazol-2-ylthio)-N-[2,4-bis(methylthio)-6-methyl-3-pyridyl]hexanamide] | 139 to 141 |
| CCSc1cc(C)nc(SCC)c1NC(=O)CSc1nc2ccccc2o1 [compound 811, 2-(benzoxazol-2-ylthio)-N-[2,4-bis(ethylthio)-6-methyl-3-pyridyl]acetamide] | 143 to 145 |
| CCSc1cc(C)nc(SCC)c1NC(=O)CCCCCSc1nc2ccccc2o1 [compound 815, 6-(benzoxazol-2-ylthio)-N-[2,4-bis(ethylthio)-6-methyl-3-pyridyl]hexanamide] | 100 to 103 |
| CCSc1cc(C)nc(SCC)c1NC(=O)CCCCCCCCSc1nc2ccccc2o1 [compound 818, 9-(benzoxazol-2-ylthio)-N-[2,4-bis(ethylthio)-6-methyl-3-pyridyl]nonanamide] | 84 to 87 |
| CCSc1cc(C)nc(SCC)c1NC(=O)CSc1nc2ccccc2s1 [compound 821, 2-(benzothiazol-2-ylthio)-N-[2,4-bis(ethylthio)-6-methyl-3-pyridyl]acetamide] | 119 to 120 |
| CCSc1cc(C)nc(SCC)c1NC(=O)CCCCCSc1nc2ccccc2s1 [compound 825, 6-(benzothiazol-2-ylthio)-N-[2,4-bis(ethylthio)-6-methyl-3-pyridyl]hexanamide] | 81 to 83 |
| CCSc1cc(C)nc(SCC)c1NC(=O)CSc1nc2ccccc2[nH]1 [compound 831, 2-(benzimidazol-2-ylthio)-N-[2,4-bis(ethylthio)-6-methyl-3-pyridyl]acetamide] | 182 to 183 |
| Cc1cc(SC(C)C)c(NC(=O)CCCSc2nc3ccccc3o2)c(SC(C)C)n1 [compound 843, 4-(benzoxazol-2-ylthio)-N-[2,4-bis(isopropylthio)-6-methyl-3-pyridyl]butanamide] | 128 to 129 |
